This note sets out measurements from patent US20220227707A1, “COMPOUNDS AND COMPOSITIONS FOR TREATING CONDITIONS ASSOCIATED WITH NLRP ACTIVITY” (Novartis AG, priority 2019, published 2022).

The first experiment relates to IL-1β production in PMA-differentiated THP-1 cells. Put plainly: IL-1β production in PMA-differentiated THP-1 cells stimulated with gramicidin (hTHP-1 assay). The format is cell-based, human. The conditions noted are these: Average IC50, hTHP-1 assay containing 2% fetal bovine serum; Table 10, class symbols. How it is done: Procedure 1: IL-1β Production in PMA-Differentiated THP-1 Cells Stimulated with Gramicidin
THP-1 cells were purchased from the American Type Culture Collection and sub-cultured according to instructions from the supplier. Cells were cultured in complete RPMI 1640 (containing 10% heat inactivated FBS, penicillin (100 units/ml) and streptomycin (100 μg/ml)), and maintained in log phase prior to experimental setup. Prior to the experiment, compounds were dissolved in dimethyl sulfoxide (DMSO) to generate a 30 mM stock. The compound stock was first pre-diluted in DMSO to 3, 0.34, 0.042 and 0.0083 mM intermediate concentrations and subsequently spotted using Echo550 liquid handler into an empty 384-well assay plate to achieve desired final concentration (e.g. 100, 33, 11, 3.7, 1.2, 0.41, 0.14, 0.046, 0.015, 0.0051, 0.0017 μM). DMSO was backfilled in the plate to achieve a final DMSO assay concentration of 0.37%. The plate was then sealed and stored at room temperature until required.
THP-1 cells were treated with PMA (Phorbol 12-myristate 13-acetate) (20 ng/ml) for 16-18 hours. On the day of the experiment the media was removed and adherent cells were detached with trypsin for 5 minutes. Cells were then harvested, washed with complete RPMI 1640, spun down, and resuspended in RPMI 1640 (containing 2% heat inactivated FBS, penicillin (100 units/ml) and streptomycin (100 μg/ml). The cells were plated in the 384-well assay plate containing the spotted compounds at a density of 50,000 cells/well (final assay volume 50 μl). Cells were incubated with compounds for 1 hour and then stimulated with gramicidin (5 μM) (Enzo) for 2 hours. Plates were then centrifuged at 340 g for 5 min. Cell free supernatant ([…]) was collected using a 96-channel PlateMaster (Gilson) and the production of IL-1β was evaluated by HTRF (cisbio). The plates were incubated for 18 h at 4° C. and read using the preset HTRF program (donor emission at 620 nm, acceptor emission at 668 nm) of the SpectraMax i3x spectrophotometer (Molecular Devices, software SoftMax 6). A vehicle only control and a dose titration of CRID3 (100-0.0017 μM) were run concurrently with each experiment.
Procedure 2: […] Production in PMA-Differentiated THP-1 Cells Stimulated with Gramicidin
THP-1 cells were purchased from the American Type Culture Collection and sub-cultured according to instructions from the supplier. Prior to experiments, cells were cultured in complete RPMI 1640 (containing 10% heat inactivated FBS, penicillin (100 units/ml) and streptomycin (100 μg/ml)), and maintained in log phase prior to experimental setup. Prior to the experiment THP-1 were treated with PMA (Phorbol 12-myristate 13-acetate) (20 ng/ml) for 16-18 hours. Compounds were dissolved in dimethyl sulfoxide (DMSO) to generate a 30 mM stock. On the day of the experiment the media was removed and adherent cells were detached with trypsin for 5 minutes. Cells were then harvested, washed with complete RPMI 1640, spun down, resuspended in RPMI 1640 (containing 2% heat inactivated FBS, penicillin (100 units/ml) and streptomycin (100 μg/ml). The cells were plated in a 384-well plate at a density of 50,000 cells/well (final assay volume 50 μl). Compounds were first dissolved in assay medium to obtain a 5× top concentration of 500 μM. 10 step dilutions (1:3) were then undertaken in assay medium containing 1.67% DMSO. 5× compound solutions were added to the culture medium to achieve desired final concentration (e.g. 100, 33, 11, 3.7, 1.2, 0.41, 0.14, 0.046, 0.015, 0.0051, 0.0017 μM). Final DMSO concentration was at 0.37%. Cells were incubated with compounds for 1 hour and then stimulated with gramicidin (5 μM) (Enzo) for 2 hours. Plates were then centrifuged at 340 g for 5 min. Cell free supernatant (40 μL) was collected using a 96-channel PlateMaster (Gilson) and the production of IL-1β was evaluated by HTRF (cisbio). A vehicle only control and a dose titration of CRID3 (100-0.0017 μM) were run concurrently with each experiment. […]
The IC50 is the concentration that gives 50% inhibition. Read a low IC50 as inhibition by little substance. `CN(C)CCCS(N)(=O)=NC(=O)Nc1c2c(cc3c1CCC3)CCC2` (single isomer, unassigned) [Compound 142, 3-(dimethylamino)-N′-((1,2,3,5,6,7-hexahydro-s-indacen-4-yl)carbamoyl)propane-1-sulfonimidamide]: the half-inhibitory concentration (IC50) fell in the range of 1 to 5 µM.
Still for that read-out and setting: the same measure for `CN(C)CCCS(N)(=O)=NC(=O)Nc1c2c(cc3c1CCC3)CCC2` (single isomer, unassigned) [Compound 143, 3-(dimethylamino)-N′-((1,2,3,5,6,7-hexahydro-s-indacen-4-yl)carbamoyl)propane-1-sulfonimidamide]: 5 to 30 µM; for `NS(=O)(=NC(=O)Nc1c2c(cc3c1CCC3)CCC2)C1CC1` (single isomer, unassigned) [Compound 155]: 5 to 30 µM.
Consider `CC(C)(O)c1ccc(CS(N)(=O)=NC(=O)Nc2c3c(cc4c2CCC4)CCC3)cc1` (single isomer, unassigned) [Compound 165a], for which the IC50 lay within 1 to 5 µM.
Same read-out and setting: for `CC(C)(O)c1ccc(CS(N)(=O)=NC(=O)Nc2c3c(cc4c2CCC4)CCC3)cc1` (single isomer, unassigned) [Compound 165b] the value was 0.04 to 0.2 µM.

The experiment is the same for the next values; noted with them: Average IC50, hTHP-1 assay containing 2% fetal bovine serum; Table 10, numeric values.
`CN(C)S(C)(=O)=NC(=O)Nc1c2c(cc3c1CCC3)CCC2` (single isomer, unassigned) [Compound 102, N′-((1,2,3,5,6,7-hexahydro-s-indacen-4-yl)carbamoyl)-N,N-dimethylmethanesulfonimidamide] yielded an IC50 of more than 30 µM.
In the case of `CC(CN(C)C)CS(N)(=O)=NC(=O)Nc1c2c(cc3c1CCC3)CCC2` (single isomer, unassigned) [Compound 127, 3-(dimethylamino)-N′-((1,2,3,5,6,7-hexahydro-s-indacen-4-yl)carbamoyl)-2-methylpropane-1-sulfonimidamide], the IC50 was more than 30 µM.
On the same count and under the same terms, the same measure for `NS(=O)(=NC(=O)Nc1c2c(cc3c1CCC3)CCC2)C1CCC1` (single isomer, unassigned) [Compound 146]: more than 30 µM.

The same experiment, now with this note: Homo sapiens, THP-1, Average IC50, hTHP-1 assay containing 2% fetal bovine serum; Table 3B, class symbols.
In turn, `CN(C)S(N)(=O)=NC(=O)Nc1c2c(cc3c1CCC3)CCC2` (stereo not shown) [Compound 101B, 3-[amino(dimethylamino)oxo-lambda6-sulfanylidene]-1-(1,2,3,5,6,7-hexahydro-s-indacen-4-yl)urea] displayed a 50% inhibitory concentration (IC50) of 5 to 30 µM.

The same experiment, now with this note: Homo sapiens, THP-1, Average IC50, hTHP-1 assay containing 2% fetal bovine serum; Table 10, class symbols.
With `CN(C)Cc1ccc(CS(N)(=O)=NC(=O)Nc2c3c(cc4c2CCC4)CCC3)cc1` (single isomer, unassigned) [Compound 106], the IC50 lay in the range of 1 to 5 µM.
The same measure, in the same setting: the same measure for `CN1CCC(CS(N)(=O)=NC(=O)Nc2c3c(cc4c2CCC4)CCC3)C1` (single isomer, unassigned) [Compound 114]: 5 to 30 µM.
On the same count and under the same terms, for `CS(N)(=O)=NC(=O)Nc1c2c(cc3c1CCC3)CCC2` (single isomer, unassigned) [Compound 117] the value was 5 to 30 µM; for `CN(C)CCCC(=O)NS(C)(=O)=NC(=O)Nc1c2c(cc3c1CCC3)CCC2` (single isomer, unassigned) [Compound 119, 4-(dimethylamino)-N—(N-((1,2,3,5,6,7-hexahydro-s-indacen-4-yl)carbamoyl)-S-methylsulfonimidoyl)butanamide], 5 to 30 µM; for `CC(CN(C)C)CS(N)(=O)=NC(=O)Nc1c2c(cc3c1CCC3)CCC2` (single isomer, unassigned) [Compound 122, 3-(dimethylamino)-N′-((1,2,3,5,6,7-hexahydro-s-indacen-4-yl)carbamoyl)-2-methylpropane-1-sulfonimidamide], 1 to 5 µM.
Same read-out and setting: the same measure for `NS(=O)(=NC(=O)Nc1c2c(cc3c1CCC3)CCC2)C1Cc2ccccc2C1` (single isomer, unassigned) [Compound 129]: 5 to 30 µM; for `NS(=O)(=NC(=O)Nc1c2c(cc3c1CCC3)CCC2)C1CC1` (single isomer, unassigned) [Compound 154]: 5 to 30 µM; for `CN(C)Cc1ccc(CS(N)(=O)=NC(=O)Nc2c3c(cc4c2CCC4)CCC3)cc1` (stereo not shown) [Compound 104, 1-(4-((dimethylamino)methyl)pheny1)-N′-((1,2,3,5,6,7-hexahydro-s-indacen-4-yl)carbamoyl) methane-sulfonimidamide]: 1 to 5 µM.
For `CC(CCc1ccccc1)S(N)(=O)=NC(=O)Nc1c2c(cc3c1CCC3)CCC2` (stereo not shown) [Compound 109], the IC50 was 5 to 30 µM.
Same read-out and setting: for `CC(=O)NS(C)(=O)=NC(=O)Nc1c2c(cc3c1CCC3)CCC2` (stereo not shown) [Compound 111] the value was 5 to 30 µM.

The experiment is the same for the next values; noted with them: Homo sapiens, THP-1, Average IC50, hTHP-1 assay containing 2% fetal bovine serum; Table 10, numeric values.
With `CN(C)S(C)(=O)=NC(=O)Nc1c2c(cc3c1CCC3)CCC2` (single isomer, unassigned) [Compound 101, N′-((1,2,3,5,6,7-hexahydro-s-indacen-4-yl)carbamoyl)-N,N-dimethylmethanesulfonimidamide], the IC50 was more than 30 µM.
The same measure, in the same setting: for `CN(C)Cc1ccc(CS(N)(=O)=NC(=O)Nc2c3c(cc4c2CCC4)CCC3)cc1` (single isomer, unassigned) [Compound 105] the value was more than 30 µM.
In the case of `CN1CCC(CS(N)(=O)=NC(=O)Nc2c3c(cc4c2CCC4)CCC3)C1` (single isomer, unassigned) [Compound 113], the IC50 was more than 30 µM.
Same read-out and setting: for `CS(N)(=O)=NC(=O)Nc1c2c(cc3c1CCC3)CCC2` (single isomer, unassigned) [Compound 116] the value was more than 30 µM; for `CN(C)CCCC(=O)NS(C)(=O)=NC(=O)Nc1c2c(cc3c1CCC3)CCC2` (single isomer, unassigned) [Compound 118, 4-(dimethylamino)-N—(N-((1,2,3,5,6,7-hexahydro-s-indacen-4-yl)carbamoyl)-S-methylsulfonimidoyl)butanamide], more than 30 µM.
On to `CC(CN(C)C)CS(N)(=O)=NC(=O)Nc1c2c(cc3c1CCC3)CCC2` (single isomer, unassigned) [Compound 124, 3-(dimethylamino)-N′-((1,2,3,5,6,7-hexahydro-s-indacen-4-yl)carbamoyl)-2-methylpropane-1-sulfonimidamide], for which the IC50 is more than 30 µM.
Still for that read-out and setting: for `NS(=O)(=NC(=O)Nc1c2c(cc3c1CCC3)CCC2)C1Cc2ccccc2C1` (single isomer, unassigned) [Compound 130] the value was more than 30 µM; for `CN1CCC(S(N)(=O)=NC(=O)Nc2c3c(cc4c2CCC4)CCC3)C1` (single isomer, unassigned) [Compound 134, N′-((1,2,3,5,6,7-hexahydro-s-indacen-4-yl)carbamoyl)-1-methylpyrrolidine-3-sulfonimidamide], more than 30 µM.
`NS(=O)(=NC(=O)Nc1c2c(cc3c1CCC3)CCC2)C1CCC1` (single isomer, unassigned) [Compound 145] gave an IC50 of more than 30 µM.
For the compound `CNS(C)(=O)=NC(=O)Nc1c2c(cc3c1CCC3)CCC2` (stereo not shown) [Compound 103, N′-((1,2,3,5,6,7-hexahydro-s-indacen-4-yl)carbamoy1)-N-methylmethane-sulfonimidamide], the IC50 was more than 30 µM.
The same measure, in the same setting: the same measure for `CN(C)S(C)(=O)=NC(=O)Nc1c2c(cc3c1CCC3)CCC2` (stereo not shown) [Compound 107]: more than 30 µM; for `CS(=O)(=NC(=O)Nc1c2c(cc3c1CCC3)CCC2)NC(=O)c1ccccc1` (stereo not shown) [Compound 108]: more than 30 µM.
